The text below walks through data of patent publication US20170226059A1, “APOE4-TARGETED THERAPUTICS THAT INCREASE SIRT1” (The Regents of the University of California, priority 2014, published 2017).

“Also recorded” adds a separate entry of the source. Like-named read-outs stand apart in the source and are kept apart here.

One series relates to SirT1 mRNA. Nature of the series: SirT1 mRNA levels in A172 cells transfected with ApoE4 (quantitative real-time PCR). The series is classed as cell-based, human. To be noted: A03 at 2 μM. The method, then: Total RNA from transfected and drug-treated cells is isolated using the High Pure RNA isolation kit (Roche) and 1 μg of RNA is reverse-transcribed. To analyze the mRNA levels of SirT1, real time PCR can be performed on first-strand cDNAs as described (Theendakara et al. (2013) Proc. Natl. Acad. Sci. USA, 10(45): 18303-18308). The real-time PCR can be performed in Light Cycler 480-384-multiwell plates (Roche). Primers for SirT1 were designed using the Roche universal probe library system and the primers were synthesized by Integrated DNA Technology. Real-time PCR can be performed in SYBR Green master mix with the corresponding primer sets. The melting curves of PCR products are monitored to ensure that a single melting curve is obtained. For analysis of the real-time PCR data, δCt values of samples are normalized to values obtained for GAPDH, which is assayed simultaneously. Relative quantification using the DeltaDelta Ct method can be adopted to calculate the relative quantity of SirT1 levels.
Background: In qPCR the cycle at which signal appears reflects the starting amount.

For series [1] the following is noted: rodents, high doses; cited from earlier work.
In another series the test system is ADAM10 mRNA. The series is described as follows: ADAM10 mRNA levels / transcription in A172 cells transfected with ApoE4. The series is classed as cell-based, human. To be noted: A03 at 2 uM.
For series [2] the following is noted: Phase1 human trials, up to 200 mgs bid; cited from earlier work.
Another series relates to sAPPα. Nature of the series: sAPPα levels in the presence of ApoE4 (AlphaLISA). The following applies: in the presence of ApoE4 (ApoE4-transfected cells); listed as Alaproclate. It is filed as cell-based. On the procedure:
sAPPα or sAPPβ secreted into the cellular media are determined with sAPPα or sAPPβ AlphaLISA immunoassay kits (PerkinElmer) according to the manufacturer's protocol with some modifications. The standards, blanks, and media are diluted with the buffer provided in the kit and added to the plate. During the first incubation step, the analyte is captured either by an antibody recognizing the α-secretase cleavage site at sAPPα C-terminus (clone 2B3) or the sAPPβ C-terminus, and then by a second biotin-labeled antibody specific to the N-terminal common domain of sAPP. In the second incubation step, the biotinylated anti-analyte antibody is bound to the streptavidin-coated donor beads. At the end of this reaction, the plates are read on an EnSpire Alpha 2390 multilabel plate reader equipped with the AlphaScreen module. The Aβ1-42 or 1-40 are determined from media and/or cells using Life Science's sandwich ELISA kit. The levels of Aβ are quantified from a standard curve and normalized to total cellular protein (Spilman et al. (2014) Brain Res. 1551: 25-44; Theendakara et al. (2013) Proc. Natl. Acad. Sci. USA, 10(45): 18303-18308), Tau and p-tau are determined from cell extracts by a solid phase double antibody sandwich ELISA technology designed for quantitative determination of phospho-tau (Antibodies-Online). APP and p-APP are determined by the DuoSet IC ELISA (R&D Systems) to measure phosphorylated APP in cell lysates. An immobilized capture antibody specific for APP binds both phosphorylated and unphosphorylated APP. After unbound material is washed away, a biotinylated detection antibody is used to detect either APP or phosphor-APP utilizing a standard HRP format. Using these assay procedures we notice a significant increase in p-tau and p-APP levels in ApoE4-transfected cells. It can be determined whether the primary “hits” reverse the ApoE4-mediated APP-Thr phosphorylation and tau-phosphorylation.

Series [3] is described as follows: Brain penetration after subcutaneous injection in mice. It is filed as in vivo. The method, then: Pharmacokinetic (PK) analysis for CNS exposure studies can consist of a time course design to collect heparinized plasma and brains (Korfmacher et al. (2001) Rapid Commun. Mass. Spectrom. 15(5): 335-340; Mei et al. (2006) AAPS J. 8(3): E493-500; Spilman et al. (2014) Brain Res. 1551: 25-44). Five non-transgenic mice can be used for the PK studies, and 1, 2, 4, 6, and 8 hour time points taken. Following oral, and either sc or ip administration of the molecules at 10 mg/kg, plasma and brain levels of the compounds can be determined by quantitative LC/MS/MS methodology. Plasma samples can be precipitated with acetonitrile:methanol (1:1) cocktail containing an internal standard. The brain samples can be homogenized directly in ethylacetate or extracted from 5M guanidine homogenates with liquid-liquid method. The resulting supernatant can be evaporated to dryness and subjected to the LC/MS/MS analysis. For each compound 3 mice can be used for this analysis. The brain-to-plasma ratios and brain levels can then be calculated to identify the best candidate(s) for further efficacy testing.

The test system of the next series is SirT1. The series is described as follows: Primary AlphaLISA screening assay: SirT1 levels in N2a cells stably transfected with ApoE4. It is filed as cell-based, mouse. The following applies: for SirT1 levels (dose-response): N2A neuroblastoma cells stably transfected with ApoE4. On the procedure:
We have developed a primary screening assay that is HTS formatable; the assay would be done on N2a cells (mouse neuroblastoma cells) that have been stably transfected with ApoE3 and ApoE4. The cells are treated with drugs and the SirT1 levels are measured using the AlphaLISA assay that we have developed, e.g., as shown in FIG. 11. The illustrated AlphaLISA uses an antibody (Ab, E104, Abcam) that binds the C-terminus of SirT1 and is on the acceptor bead. The N-terminal Ab (D1D7, Abcam) is biotinylated and binds to the donor bead. For the primary assay the Neuro-2a (N2a) cells stably expressing similar levels of hApoE3 or hApoE4 are used. The primary assay can be done in triplicate. The N2a cells have reasonably good endogenous levels of APP thus avoiding the necessity of APP transfection. In general, for the assays N2a cells stably transfected with hApoE3 (E3) or hApoE4 (E4) are plated, e.g., at […] in 384-well plates in […] of growth medium and allowed to attached for 3 h. The E4 cells are treated with compounds overnight, E3 cells are controls. The following day, growth medium is removed and cells are lysed with AlphaLysis buffer complemented with protease and phosphatase inhibitors.
Then, the AlphaLISA assay is run and molecules that can increase or reverse the SirT1 levels in ApoE4 cells are identified. A preliminary estimate, based on the initial screening which yielded two reproducible “hits” from a set of 1000 compounds, which is a 0.2% hit-rate. […] Our initial screening was done on a small library of about 1000 compounds. The assay is translatable to a HTS format.
(Bead proximity is the source of the signal in Alpha formats.)

The next series relates to p-tau. The series is described as follows: p-Tau levels in SHSY5Y. It is filed as cell-based. On the procedure:
sAPPα or sAPPβ secreted into the cellular media are determined with sAPPα or sAPPβ AlphaLISA immunoassay kits (PerkinElmer) according to the manufacturer's protocol with some modifications. The standards, blanks, and media are diluted with the buffer provided in the kit and added to the plate. During the first incubation step, the analyte is captured either by an antibody recognizing the α-secretase cleavage site at sAPPα C-terminus (clone 2B3) or the sAPPβ C-terminus, and then by a second biotin-labeled antibody specific to the N-terminal common domain of sAPP. In the second incubation step, the biotinylated anti-analyte antibody is bound to the streptavidin-coated donor beads. At the end of this reaction, the plates are read on an EnSpire Alpha 2390 multilabel plate reader equipped with the AlphaScreen module. The Aβ1-42 or 1-40 are determined from media and/or cells using Life Science's sandwich ELISA kit. The levels of Aβ are quantified from a standard curve and normalized to total cellular protein (Spilman et al. (2014) Brain Res. 1551: 25-44; Theendakara et al. (2013) Proc. Natl. Acad. Sci. USA, 10(45): 18303-18308), Tau and p-tau are determined from cell extracts by a solid phase double antibody sandwich ELISA technology designed for quantitative determination of phospho-tau (Antibodies-Online). […]

For `CC(N)C(=O)OC(C)(C)Cc1ccc(Cl)cc1` (centres unmarked) [Compound A03, 1-(4-chlorophenyl)-2-methylpropan-2-yl 2-aminopropanoate], the figures for the “mRNA levels of SirT1” value in the series with SirT1 mRNA and in the series with SirT1 mRNA (listed as Alaproclate) were “normalized; also recorded: normalize the mRNA levels for SirT1” and “increased”, respectively. Moreover, the liver toxicity entry in series [1] was “observed liver toxicity”. For the same compound, the “ADAM10 mRNA levels / transcription” value with ADAM10 mRNA is recorded as “normalized; also recorded: normalization of ADAM10 transcription”; in the series with ADAM10 mRNA (listed as Alaproclate) it was “increased”. For the same compound, the adverse events result in series [2] was “no observed adverse events”. The global scores entry in series [2] is reported as “some improvements in global scores”. Further, the sAPPα levels entry in the series with sAPPα is “increases”. The “brain penetration / brain permeability” value is reported as “excellent brain penetration” in series [3] and “highly brain permeable” in series [3] (listed as alaproclate). The Kp in series [3] (mouse, brain and plasma, sc, 10 mg/kg, read-out: brain/plasma (B/P)) is ~10. The “EC20 for SirT1 enhancement” value in the series with SirT1 (N2A cells stably transfected with ApoE4) stood at 0.2 µM. Also, the EC50 (as a rule, the concentration that produces a half-maximal response) in the series with SirT1 (N2A cells stably transfected with ApoE4, read-out: EC50 for SirT1 enhancement) was ~2 µM. The figures for the “SirT1 levels (dose-response)” value with SirT1, in the series with SirT1 (listed as Alaproclate) and in the series on SirT1 (listed as alaproclate) were “generated a SirT1 dose-response; also recorded: SirT1 levels increasing with dose”, “increases” and “increase SirT1 levels in a dose responsive manner”, respectively. For the same compound, in the series with p-tau, the p-Tau levels entry is listed as “decreased”.
